Results taken from patent US12617783B2, “Heterocyclic GLP-1R agonists” (BIOMEA FUSION, INC., priority 2024, dated 2026).
pEC50: −log10 of the molar value.

These molecules were tested against T1, human GLP-1R (Homo sapiens, UniProt P43220) (assay: GLP-1R cAMP assay (Example B1a, HTRF, 30 min at room temperature)). Details: cAMP accumulation in HEK293 expressing human GLP-1R, no BETP, 30 min room temperature (Method B1a, compounds ID 1-609), Table 1; read-out: EC50.
T1 construct: host or cells: HEK293
T1 sequence (P43220 24-463): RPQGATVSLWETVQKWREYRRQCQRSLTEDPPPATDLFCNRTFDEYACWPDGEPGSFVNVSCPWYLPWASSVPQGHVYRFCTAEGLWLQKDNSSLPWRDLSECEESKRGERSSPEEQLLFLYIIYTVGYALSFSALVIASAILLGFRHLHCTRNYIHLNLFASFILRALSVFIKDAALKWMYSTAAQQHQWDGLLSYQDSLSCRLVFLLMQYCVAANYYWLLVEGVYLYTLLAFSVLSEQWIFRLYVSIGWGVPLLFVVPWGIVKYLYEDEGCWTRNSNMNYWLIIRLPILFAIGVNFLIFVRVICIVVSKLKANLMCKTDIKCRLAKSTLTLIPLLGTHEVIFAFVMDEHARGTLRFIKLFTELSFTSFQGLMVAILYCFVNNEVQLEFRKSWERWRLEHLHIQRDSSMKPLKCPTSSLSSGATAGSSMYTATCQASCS
Assay type: cell-based
How it was run: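 Competitive HTRF read-out of cAMP after 30 min room-temperature stimulation, BETP absent, of human GLP-1R-HEK293 cells (1,000/well) in HEPES buffer with 500 μM IBMX and 0.1% BSA. Activation normalised to GLP-1(7-37) positive control. EC50 from 4-parameter non-linear regression.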

Compound	pEC50
Cc1cc(-n2nc3c(c2-n2ccn(-c4ccc5c(cnn5C)c4F)c2=O)[C@@H]2CC[C@H](C3)N2S(=O)(=O)c2cc3cc(C4CCOC(C)(C)C4)ccc3n2[C@]2(c3noc(=O)[nH]3)C[C@@H]2C)cc(C)c1F (stereo partly drawn) [Compound 504, 3-[(1R,2S)-1-[5-(2,2-dimethyltetrahydropyran-4-yl)-2-[[(1S,8R)-4-(4-fluoro-3,5-dimethyl-phenyl)-3-[3-(4-fluoro-1-methyl-indazol-5-yl)-2-oxo-imidazol-1-yl]-4,5,11-triazatricyclo[6.2.1.02,6]undeca-2,5-dien-11-yl]sulfonyl]indol-1-yl]-2-methyl-cyclopropyl]-4H-1,2,4-oxadiazol-5-one]	5.71
Cc1cc(-n2nc3c(c2-n2ccn(-c4ccc5[nH]ncc5c4F)c2=O)CN(C(=O)c2cc4cc([C@H]5CCOC(C)(C)C5)ccc4n2[C@@]2(c4noc(=O)[nH]4)C[C@@H]2C)CCC3)cc(C)c1F [Compound 505, 3-[(1S,2S)-1-[5-[(4S)-2,2-dimethyltetrahydropyran-4-yl]-2-[2-(4-fluoro-3,5-dimethyl-phenyl)-3-[3-(4-fluoro-1H-indazol-5-yl)-2-oxo-imidazol-1-yl]-4,6,7,8-tetrahydropyrazolo[4,3-c]azepine-5-carbonyl]indol-1-yl]-2-methyl-cyclopropyl]-4H-1,2,4-oxadiazol-5-one]	6.22
Cc1cc(-n2nc3c(c2-n2ccn(-c4ccc5c(cnn5C)c4F)c2=O)C2CCC([C@@H]3F)N2C(=O)c2cc3cc([C@H]4CCOC(C)(C)C4)ccc3n2[C@@]2(c3noc(=O)[nH]3)C[C@@H]2C)cc(C)c1F (stereo partly drawn) [Compound 507, cis-3-((1S,2S)-1-(5-((S)-2,2-dimethyltetrahydro-2H-pyran-4-yl)-2-(8-fluoro-3-(3-(4-fluoro-1-methyl-1H-indazol-5-yl)-2-oxo-2,3-dihydro-1H-imidazol-1-yl)-2-(4-fluoro-3,5-dimethylphenyl)-2,4,5,6,7,8-hexahydro-4,7-epiminocyclohepta [c]pyrazole-9-carbonyl)-1H-indol-1-yl)-2-methylcyclopropyl)-1,2,4-oxadiazol-5 (4H)-one]	6.20

Other lines, results leading:

pEC50	Compound
7.01	Cc1cc(-n2nc3c(c2-n2ccn(-c4ccc5c(cnn5C)c4F)c2=O)[C@@H]2CC[C@H](C3)N2S(=O)(=O)c2cc3cc(C4CCOC(C)(C)C4)ccc3n2[C@@]2(c3noc(=O)[nH]3)C[C@@H]2C)cc(C)c1F (stereo partly drawn) [Compound 503, 3-((1S,2S)-1-(5-(2,2-dimethyltetrahydro-2H-pyran-4-yl)-2-(((4S,7R)-3-(3-(4-fluoro-1-methyl-1H-indazol-5-yl)-2-oxo-2,3-dihydro-1H-imidazol-1-yl)-2-(4-fluoro-3,5-dimethylphenyl)-2,4,5,6,7,8-hexahydro-4,7-epiminocyclohepta [c]pyrazol-9-yl)sulfonyl)-1H-indol-1-yl)-2-methylcyclopropyl)-1,2,4-oxadiazol-5 (4H)-one]
6.12	CCP(=O)(CC)c1ccc(-n2ccn(-c3c4c(nn3-c3cc(C)c(F)c(C)c3)CCCN(C(=O)c3cc5cc(C6CCOCC6)ccc5n3[C@@]3(c5noc(=O)[nH]5)C[C@@H]3C)C4)c2=O)cc1NC [Compound 506, 3-[(1S,2S)-1-[2-[3-[3-[4-diethylphosphoryl-3-(methylamino)phenyl]-2-oxo-imidazol-1-yl]-2-(4-fluoro-3,5-dimethyl-phenyl)-4,6,7,8-tetrahydropyrazolo[4,3-c]azepine-5-carbonyl]-5-tetrahydropyran-4-yl-indol-1-yl]-2-methyl-cyclopropyl]-4H-1,2,4-oxadiazol-5-one]
≤ 5.00	Cc1cc(-n2nc3c(c2-n2ccn(-c4ccc5c(cnn5C)c4F)c2=O)CN(S(=O)(=O)c2cc4cc(C5CCOC(C)(C)C5)ccc4n2[C@@]2(c4noc(=O)[nH]4)C[C@@H]2C)CCC3)cc(C)c1F (stereo partly drawn) [Compound 508, 3-[(1S,2S)-1-[5-(2,2-dimethyltetrahydropyran-4-yl)-2-[[2-(4-fluoro-3,5-dimethyl-phenyl)-3-[3-(4-fluoro-1-methyl-indazol-5-yl)-2-oxo-imidazol-1-yl]-4,6,7,8-tetrahydropyrazolo[4,3-c]azepin-5-yl]sulfonyl]indol-1-yl]-2-methyl-cyclopropyl]-4H-1,2,4-oxadiazol-5-one]
